Values of other authors, collected in patent publication US12629369B2, “Pharmaceutical compositions of nilotinib” (AZURITY PHARMACEUTICALS, INC., priority 2019, dated 2026).
Where a name gives a salt, the structure may show the parent alone.

Key:
[1] = taken with or after meals, particularly high fat meals (Castagnetti et al 2008)

increase of extent of absorption (area under the plasma profile curve) [1] [%] | increase of rate of absorption (Cmax) [1] [%] | solubility in aqueous solutions (25° C., pH 4.5 and higher) | water solubility | SMILES
82 | 112 | practically insoluble | – | Cc1cn(-c2cc(NC(=O)c3ccc(C)c(Nc4nccc(-c5cccnc5)n4)c3)cc(C(F)(F)F)c2)cn1 [Nilotinib, 4-methyl-N-[3-(4-methyl-1H-imidazol-1-yl)-5-(trifluoromethyl)phenyl]-3-[[4-(3-pyridinyl)-2-pyrimidinyl]amino]-benzamide]
– | – | – | poorly water soluble | Cc1cn(-c2cc(NC(=O)c3ccc(C)c(Nc4nccc(-c5cccnc5)n4)c3)cc(C(F)(F)F)c2)cn1 [Nilotinib hydrochloride]
